Measured values taken from patent US6395473B1, “Adenoviral based promoter assay” (Merck & Co., Inc., priority 1998, dated 2002).

System: rat glutathione S-transferase Ya subunit promoter
Assay: CAT reporter activity induction in HepG2 cells carrying the rat GST Ya promoter/CAT construct
Assay type: cell-based
Settings: HepG2 cells infected with pdelE1sp1B-1.6CAT, a-NF 50 mM
Source text: DNA coding for a promoter/reporter rat glutathione S-transferase Ya subunit 1.6 kb promoter sequence positioned upstream of the chloramphenicol acetyltransferase reporter gene was cloned into the adenovirus shuttle vector pdelE1sp1B, whereby the E1B genome of the adenovirus is deleted and replaced. Successful construction of the shuttle vector, pdelE1sp1B-1.6CAT was verified by both restriction mapping and by sequencing across the 5′- and 3′-ends of the cloning sites. In addition, the shuttle vector was tested functionally in HepG2 cells for regulation of expression of CAT by a-napthoflavone ([…]).
HepG2 cells were seeded in 12- or 24-well plates at a density of 60-70% confluence. Cells were infected the following day with Ad1.6CAT (9.7×10^8 pfu/ml) at an MOI of 5 for 1 h. At the end of the infection period the virus was removed, the cells were rinsed once with PBS, and fresh media was placed on the cells. […]
HepG2 cells were harvested at various time points following induction of CAT expression. […] CAT activity determined by the method of Gorman et al. using 10 ug of protein for 60 minute at 37° C. Acetylated products of chloramphenicol were extracted with mixed xylenes and quantitated by liquid scintillation counting. Results were expressed as fold induction versus control.

O=c1cc(-c2ccccc2)oc2c1ccc1ccccc12 [a-NF, a-napthoflavone]
Induction of CAT activity (fold induction versus control) (after 24 hours): approximately 45 fold | Induction of CAT activity (fold induction versus control) (after 48 hours): approximately 85 fold
